In ChEMBL document CHEMBL1201862, “PubChem BioAssay data set” (2004):
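96-well plates; 48 h exposure; 5 concentrations. Endpoints by linear interpolation between flanking doses. Not reached: highest tested concentration assigned. At the GI50, growth is halved.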 Calls of active or inactive are those of the source. No stated cut-off is given here; in the data, active = GI50 up to about 1.1 µM and inactive = higher.

Columns and labels:
Experiment in all cases: growth of human tumour cells (NCI), 48 h
MCF7 = test system: MCF7
U-251 = test system: U-251
DU-145 = test system: DU-145
BT-549 = test system: BT-549
CAKI-1 = test system: CAKI-1
RPMI-8226 = test system: RPMI-8226
LOX IMVI = test system: LOX IMVI
RXF 393 = test system: RXF 393
OVCAR-5 = test system: OVCAR-5
OVCAR-4 = test system: OVCAR-4
NCI-H226 = test system: NCI-H226
MDA-N = test system: MDA-N
NCI-H460 = test system: NCI-H460
A549 = test system: A549
MOLT-4 = test system: MOLT-4
OVCAR-8 = test system: OVCAR-8
HCT-15 = test system: HCT-15
TK-10 = test system: TK-10
OVCAR-3 = test system: OVCAR-3
K562 = test system: K562

`Cc1nnc2sc(NN)nn12` was tested, and the GI50 (MCF7) was > 100 µM (inactive), the GI50 (U-251) was > 100 µM (inactive) and the GI50 (DU-145) was > 100 µM (inactive). The GI50 (BT-549) was > 100 µM (inactive), the GI50 (CAKI-1) was > 100 µM (inactive) and the GI50 (RPMI-8226) was > 100 µM (inactive). The GI50 (LOX IMVI) was > 100 µM (inactive), the GI50 (RXF 393) was > 100 µM (inactive) and the GI50 (OVCAR-5) was > 100 µM (inactive). The GI50 (OVCAR-4) was > 100 µM (inactive), the GI50 (NCI-H226) was > 100 µM (inactive) and the GI50 (MDA-N) was 43.5 µM (inactive). For the same molecule, the GI50 (NCI-H460) was > 100 µM (inactive), the GI50 (A549) was > 100 µM (inactive) and the GI50 (MOLT-4) was 17.5 µM (inactive). For the same molecule, the GI50 (OVCAR-8) was > 100 µM (inactive), the GI50 (HCT-15) was > 100 µM and the GI50 (TK-10) was > 100 µM (inactive). The GI50 (OVCAR-3) was > 100 µM (inactive) and the GI50 (K562) was > 100 µM (inactive).

In the case of `C/C(=N/NC(N)=S)c1ccc[nH]1`, the GI50 (MCF7) is reported as > 100 µM (inactive), the GI50 (U-251) is reported as > 100 µM (inactive) and the GI50 (DU-145) is reported as > 100 µM (inactive). The GI50 (BT-549) was > 100 µM (inactive), the GI50 (CAKI-1) was > 100 µM (inactive) and the GI50 (RPMI-8226) was > 100 µM (inactive). The GI50 (LOX IMVI) was > 100 µM (inactive), the GI50 (RXF 393) was > 100 µM (inactive) and the GI50 (OVCAR-5) was > 100 µM (inactive). For the same molecule, the GI50 (OVCAR-4) was 78.9 µM (inactive), the GI50 (NCI-H226) was > 100 µM (inactive) and the GI50 (MDA-N) was > 100 µM (inactive). For the same molecule, the GI50 (NCI-H460) was > 100 µM (inactive), the GI50 (A549) was > 100 µM (inactive) and the GI50 (MOLT-4) was > 100 µM (inactive). The GI50 (OVCAR-8) was > 100 µM (inactive), the GI50 (HCT-15) was > 100 µM and the GI50 (TK-10) was > 100 µM (inactive). The GI50 (OVCAR-3) was > 100 µM (inactive) and the GI50 (K562) was 37.9 µM (inactive).

`CC(Nc1ccc(Cl)c(Cl)c1)c1ccncc1` (stereo not given) was tested, and the GI50 (MCF7) was 22.4 µM (inactive), the GI50 (U-251) was 19.9 µM (inactive) and the GI50 (DU-145) was 30.2 µM (inactive). For the same molecule, the GI50 (BT-549) was 26.1 µM (inactive), the GI50 (CAKI-1) was 31 µM (inactive) and the GI50 (RPMI-8226) was 5.75 µM (inactive). The GI50 (LOX IMVI) was 18.4 µM (inactive), the GI50 (RXF 393) was 17.6 µM (inactive) and the GI50 (OVCAR-5) was > 10 µM (inactive). The GI50 (OVCAR-4) was 58.2 µM (inactive), the GI50 (NCI-H226) was 17.9 µM (inactive) and the GI50 (MDA-N) was 24.6 µM (inactive). The GI50 (NCI-H460) was 16.6 µM (inactive), the GI50 (A549) was 10.5 µM (inactive) and the GI50 (MOLT-4) was 19.5 µM (inactive). For the same molecule, the GI50 (OVCAR-8) was 21.8 µM (inactive), the GI50 (HCT-15) was 40.3 µM and the GI50 (TK-10) was 31.9 µM (inactive). The GI50 (OVCAR-3) was 26.8 µM (inactive) and the GI50 (K562) was 45.3 µM (inactive).

For `Cc1nc(O)c(O)c(CN2CCCCC2)n1`, the GI50 (MCF7) was > 100 µM (inactive), the GI50 (U-251) was > 100 µM (inactive) and the GI50 (DU-145) was > 100 µM (inactive). For the same molecule, the GI50 (BT-549) was > 100 µM (inactive), the GI50 (CAKI-1) was > 100 µM (inactive) and the GI50 (RPMI-8226) was > 100 µM (inactive). The GI50 (LOX IMVI) was > 100 µM (inactive), the GI50 (RXF 393) was > 100 µM (inactive) and the GI50 (OVCAR-5) was > 100 µM (inactive). The GI50 (OVCAR-4) was > 100 µM (inactive), the GI50 (NCI-H226) was > 100 µM (inactive) and the GI50 (MDA-N) was > 100 µM (inactive). The GI50 (NCI-H460) was > 100 µM (inactive), the GI50 (A549) was > 100 µM (inactive) and the GI50 (MOLT-4) was > 100 µM (inactive). The GI50 (OVCAR-8) was > 100 µM (inactive), the GI50 (HCT-15) was > 100 µM and the GI50 (TK-10) was > 100 µM (inactive). The GI50 (OVCAR-3) was > 100 µM (inactive) and the GI50 (K562) was > 100 µM (inactive).

With `O=S(=O)(O)C(Cc1nc2ccccc2[nH]1)S(=O)(=O)OCCC1S(=O)(=O)OCCOS1(=O)=O` (stereo not given) the GI50 (MCF7) was > 100 µM (inactive), the GI50 (U-251) was > 100 µM (inactive) and the GI50 (DU-145) was > 100 µM (inactive). For the same molecule, the GI50 (BT-549) was > 100 µM (inactive), the GI50 (CAKI-1) was > 100 µM (inactive) and the GI50 (RPMI-8226) was > 100 µM (inactive). The GI50 (LOX IMVI) was > 100 µM (inactive), the GI50 (RXF 393) was > 100 µM (inactive) and the GI50 (OVCAR-5) was > 100 µM (inactive). The GI50 (OVCAR-4) was > 100 µM (inactive), the GI50 (NCI-H226) was > 100 µM (inactive) and the GI50 (MDA-N) was > 100 µM (inactive). For the same molecule, the GI50 (NCI-H460) was > 100 µM (inactive), the GI50 (A549) was > 100 µM (inactive) and the GI50 (MOLT-4) was > 100 µM (inactive). For the same molecule, the GI50 (OVCAR-8) was > 100 µM (inactive), the GI50 (HCT-15) was > 100 µM and the GI50 (TK-10) was > 100 µM (inactive). For the same molecule, the GI50 (OVCAR-3) was > 100 µM (inactive) and the GI50 (K562) was > 100 µM (inactive).

`CN(Cc1cnc2nc(N)nc(N)c2n1)c1ccc(C(=O)NCCCC(=O)O)cc1` was tested, and the GI50 (MCF7) was 5.02 µM (inactive), the GI50 (U-251) was 77.3 µM (inactive) and the GI50 (DU-145) was 8.49 µM (inactive). For the same molecule, the GI50 (BT-549) was > 65 µM (inactive), the GI50 (CAKI-1) was > 27.5 µM (inactive) and the GI50 (RPMI-8226) was > 40 µM (inactive). The GI50 (LOX IMVI) was 4 µM (inactive), the GI50 (RXF 393) was > 100 µM (inactive) and the GI50 (OVCAR-5) was > 100 µM (inactive). The GI50 (OVCAR-4) was > 100 µM (inactive), the GI50 (NCI-H226) was > 37.5 µM (inactive) and the GI50 (MDA-N) was 7.57 µM (inactive). For the same molecule, the GI50 (NCI-H460) was 7.24 µM (inactive), the GI50 (A549) was 5.83 µM (inactive) and the GI50 (MOLT-4) was 6.53 µM (inactive). The GI50 (OVCAR-8) was 7.55 µM (inactive), the GI50 (HCT-15) was 6.01 µM and the GI50 (TK-10) was > 69 µM (inactive). For the same molecule, the GI50 (OVCAR-3) was > 93.5 µM (inactive) and the GI50 (K562) was 1.2 µM (inactive).

For `Cc1ccccc1NC(=S)N/N=C(/c1ccccc1)c1ccccn1`, the GI50 (MCF7) was 0.0215 µM (active), the GI50 (U-251) was < 0.01 µM (active) and the GI50 (DU-145) was 0.838 µM (active). For the same molecule, the GI50 (BT-549) was 2.58 µM (inactive), the GI50 (CAKI-1) was 0.0743 µM (active) and the GI50 (RPMI-8226) was < 0.01 µM (active). For the same molecule, the GI50 (LOX IMVI) was < 0.01 µM (active), the GI50 (RXF 393) was 0.589 µM (active) and the GI50 (OVCAR-5) was < 0.0165 µM (active). For the same molecule, the GI50 (OVCAR-4) was 0.0826 µM (active), the GI50 (NCI-H226) was 0.0295 µM (active) and the GI50 (MDA-N) was 0.7 µM (active). The GI50 (NCI-H460) was 0.0702 µM (active), the GI50 (A549) was 0.0428 µM (active) and the GI50 (MOLT-4) was < 0.0295 µM (active). The GI50 (OVCAR-8) was 0.0279 µM (active), the GI50 (HCT-15) was < 0.01 µM and the GI50 (TK-10) was < 0.0295 µM (active). For the same molecule, the GI50 (OVCAR-3) was < 0.01 µM (active) and the GI50 (K562) was < 0.0282 µM (active).
